The source made the active and inactive calls. The calls are words filed in the database; no cut-off is given here.
Columns and labels:
[1] = target: T1, Interleukin-1 receptor-associated kinase 4 (Homo sapiens, UniProt Q9NWZ3); assay: Inhibition of N-terminal GST tagged human recombinant full-length IRAK4 expressed in Sf9 insect cells assessed as reduction in substrate phosphorylation using RP7030 peptide substrate and ATP incubated for 30 mins fluorescence polarization assay
T1 sequence (Q9NWZ3 whole entry): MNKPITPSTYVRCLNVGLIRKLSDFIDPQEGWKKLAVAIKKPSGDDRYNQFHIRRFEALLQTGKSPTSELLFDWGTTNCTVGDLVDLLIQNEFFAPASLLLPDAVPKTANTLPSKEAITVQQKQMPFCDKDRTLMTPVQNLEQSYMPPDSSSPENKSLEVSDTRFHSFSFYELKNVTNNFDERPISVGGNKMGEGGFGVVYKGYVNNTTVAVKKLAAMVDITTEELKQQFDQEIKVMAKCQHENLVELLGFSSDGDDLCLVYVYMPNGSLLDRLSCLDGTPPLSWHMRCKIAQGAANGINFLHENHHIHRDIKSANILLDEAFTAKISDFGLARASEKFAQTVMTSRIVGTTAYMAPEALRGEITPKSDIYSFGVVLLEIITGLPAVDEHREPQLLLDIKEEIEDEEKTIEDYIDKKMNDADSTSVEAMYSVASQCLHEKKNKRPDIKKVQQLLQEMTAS

[2] = target: Dual specificity protein kinase CLK4 (Homo sapiens) (UniProt Q9HAZ1); assay: Inhibition of CLK4 (unknown origin)
[3] = target: NT-3 growth factor receptor (Homo sapiens) (UniProt Q16288); assay: Inhibition of TRKC (unknown origin)
[4] = target: High affinity nerve growth factor receptor (Homo sapiens) (UniProt P04629); assay: Inhibition of TRKA (unknown origin)
[5] = target: BDNF/NT-3 growth factors receptor (Homo sapiens) (UniProt Q16620); assay: Inhibition of TRKB (unknown origin)
[6] = target: Mitogen-activated protein kinase kinase kinase kinase 4 (Homo sapiens) (UniProt O95819); assay: Inhibition of MAP4K4 (unknown origin)
[7] = target: Receptor-type tyrosine-protein kinase FLT3 (Homo sapiens) (UniProt P36888); assay: Inhibition of FLT3 (unknown origin)
Receptor-type tyrosine-protein kinase FLT3 (Homo sapiens), sequence (P36888 whole entry): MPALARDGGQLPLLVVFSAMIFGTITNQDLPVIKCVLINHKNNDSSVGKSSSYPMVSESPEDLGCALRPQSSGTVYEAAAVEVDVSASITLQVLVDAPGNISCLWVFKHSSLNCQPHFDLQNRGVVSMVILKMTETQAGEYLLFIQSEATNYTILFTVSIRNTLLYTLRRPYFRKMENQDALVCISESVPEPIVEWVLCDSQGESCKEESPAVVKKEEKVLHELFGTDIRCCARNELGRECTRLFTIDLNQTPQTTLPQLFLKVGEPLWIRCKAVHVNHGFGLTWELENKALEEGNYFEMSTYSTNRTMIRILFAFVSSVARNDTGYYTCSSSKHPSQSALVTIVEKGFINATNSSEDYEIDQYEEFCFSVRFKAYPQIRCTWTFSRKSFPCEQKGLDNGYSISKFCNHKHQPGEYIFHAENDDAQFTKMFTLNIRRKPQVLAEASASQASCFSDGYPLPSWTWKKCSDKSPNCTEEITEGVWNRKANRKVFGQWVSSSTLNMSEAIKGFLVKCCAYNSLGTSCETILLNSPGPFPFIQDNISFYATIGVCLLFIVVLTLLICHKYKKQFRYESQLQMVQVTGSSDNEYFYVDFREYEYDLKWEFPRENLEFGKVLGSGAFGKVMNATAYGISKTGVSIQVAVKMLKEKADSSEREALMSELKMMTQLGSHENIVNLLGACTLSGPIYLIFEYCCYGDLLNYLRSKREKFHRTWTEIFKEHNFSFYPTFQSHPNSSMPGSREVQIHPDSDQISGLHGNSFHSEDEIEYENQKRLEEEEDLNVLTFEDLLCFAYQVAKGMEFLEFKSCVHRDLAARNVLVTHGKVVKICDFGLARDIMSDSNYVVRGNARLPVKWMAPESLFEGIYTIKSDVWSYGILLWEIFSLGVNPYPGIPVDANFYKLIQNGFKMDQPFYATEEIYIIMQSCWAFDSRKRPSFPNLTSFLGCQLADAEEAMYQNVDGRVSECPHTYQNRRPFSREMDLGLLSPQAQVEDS

Mitogen-activated protein kinase kinase kinase kinase 4 (Homo sapiens), sequence (O95819 2-1239 limits assumed): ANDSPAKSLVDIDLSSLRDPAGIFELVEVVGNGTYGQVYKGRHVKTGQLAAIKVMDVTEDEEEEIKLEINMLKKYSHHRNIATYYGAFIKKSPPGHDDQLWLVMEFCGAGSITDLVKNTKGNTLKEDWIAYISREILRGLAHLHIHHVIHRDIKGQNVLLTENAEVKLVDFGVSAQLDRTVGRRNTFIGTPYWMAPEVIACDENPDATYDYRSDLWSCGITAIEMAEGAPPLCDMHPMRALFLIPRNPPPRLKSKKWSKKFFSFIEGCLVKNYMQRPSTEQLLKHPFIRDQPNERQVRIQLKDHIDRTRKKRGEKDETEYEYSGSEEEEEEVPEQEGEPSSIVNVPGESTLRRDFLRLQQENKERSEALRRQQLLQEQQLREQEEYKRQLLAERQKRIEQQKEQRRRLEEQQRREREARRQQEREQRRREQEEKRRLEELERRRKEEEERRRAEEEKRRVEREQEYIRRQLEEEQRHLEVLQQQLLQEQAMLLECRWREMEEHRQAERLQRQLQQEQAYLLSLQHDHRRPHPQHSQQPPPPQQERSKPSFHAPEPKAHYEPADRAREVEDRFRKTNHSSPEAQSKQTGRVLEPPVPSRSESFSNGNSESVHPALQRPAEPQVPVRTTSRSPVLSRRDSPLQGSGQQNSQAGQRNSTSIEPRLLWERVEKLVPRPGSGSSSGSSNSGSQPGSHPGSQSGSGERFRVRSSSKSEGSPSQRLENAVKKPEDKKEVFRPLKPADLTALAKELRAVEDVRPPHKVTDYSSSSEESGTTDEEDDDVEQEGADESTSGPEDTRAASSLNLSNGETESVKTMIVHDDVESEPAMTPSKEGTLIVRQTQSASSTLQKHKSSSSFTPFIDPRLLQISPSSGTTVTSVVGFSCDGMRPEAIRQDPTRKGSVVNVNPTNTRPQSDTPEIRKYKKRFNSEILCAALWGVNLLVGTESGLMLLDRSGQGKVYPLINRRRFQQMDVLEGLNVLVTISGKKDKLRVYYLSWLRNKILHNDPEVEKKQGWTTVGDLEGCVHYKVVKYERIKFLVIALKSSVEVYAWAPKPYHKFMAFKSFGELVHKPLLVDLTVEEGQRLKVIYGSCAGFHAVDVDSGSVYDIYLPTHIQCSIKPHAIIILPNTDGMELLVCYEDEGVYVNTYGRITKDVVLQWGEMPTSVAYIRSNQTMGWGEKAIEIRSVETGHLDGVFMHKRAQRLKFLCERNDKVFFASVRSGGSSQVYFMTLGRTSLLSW
NT-3 growth factor receptor (Homo sapiens), sequence (Q16288 32-839 limits assumed): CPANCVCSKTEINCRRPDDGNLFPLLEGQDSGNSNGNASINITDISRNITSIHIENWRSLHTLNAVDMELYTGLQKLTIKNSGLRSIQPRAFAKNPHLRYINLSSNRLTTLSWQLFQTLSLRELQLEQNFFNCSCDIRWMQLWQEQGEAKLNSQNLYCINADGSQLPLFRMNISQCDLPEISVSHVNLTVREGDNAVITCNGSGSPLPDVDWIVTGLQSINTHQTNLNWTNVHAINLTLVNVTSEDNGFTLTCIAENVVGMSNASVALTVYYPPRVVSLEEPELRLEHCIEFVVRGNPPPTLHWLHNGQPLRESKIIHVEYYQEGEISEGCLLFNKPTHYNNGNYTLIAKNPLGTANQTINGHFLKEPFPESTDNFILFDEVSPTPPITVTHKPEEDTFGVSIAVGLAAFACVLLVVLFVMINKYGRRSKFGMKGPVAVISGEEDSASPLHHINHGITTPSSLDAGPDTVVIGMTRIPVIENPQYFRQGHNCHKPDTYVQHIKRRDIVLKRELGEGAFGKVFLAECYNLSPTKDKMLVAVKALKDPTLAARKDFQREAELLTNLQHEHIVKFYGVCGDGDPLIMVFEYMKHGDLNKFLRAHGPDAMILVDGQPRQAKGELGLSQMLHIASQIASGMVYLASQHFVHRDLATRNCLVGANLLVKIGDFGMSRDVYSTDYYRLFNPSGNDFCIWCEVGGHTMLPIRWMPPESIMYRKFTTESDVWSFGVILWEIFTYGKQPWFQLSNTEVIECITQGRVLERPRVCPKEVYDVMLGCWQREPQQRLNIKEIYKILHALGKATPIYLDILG
BDNF/NT-3 growth factors receptor (Homo sapiens), sequence (Q16620 32-822 limits assumed): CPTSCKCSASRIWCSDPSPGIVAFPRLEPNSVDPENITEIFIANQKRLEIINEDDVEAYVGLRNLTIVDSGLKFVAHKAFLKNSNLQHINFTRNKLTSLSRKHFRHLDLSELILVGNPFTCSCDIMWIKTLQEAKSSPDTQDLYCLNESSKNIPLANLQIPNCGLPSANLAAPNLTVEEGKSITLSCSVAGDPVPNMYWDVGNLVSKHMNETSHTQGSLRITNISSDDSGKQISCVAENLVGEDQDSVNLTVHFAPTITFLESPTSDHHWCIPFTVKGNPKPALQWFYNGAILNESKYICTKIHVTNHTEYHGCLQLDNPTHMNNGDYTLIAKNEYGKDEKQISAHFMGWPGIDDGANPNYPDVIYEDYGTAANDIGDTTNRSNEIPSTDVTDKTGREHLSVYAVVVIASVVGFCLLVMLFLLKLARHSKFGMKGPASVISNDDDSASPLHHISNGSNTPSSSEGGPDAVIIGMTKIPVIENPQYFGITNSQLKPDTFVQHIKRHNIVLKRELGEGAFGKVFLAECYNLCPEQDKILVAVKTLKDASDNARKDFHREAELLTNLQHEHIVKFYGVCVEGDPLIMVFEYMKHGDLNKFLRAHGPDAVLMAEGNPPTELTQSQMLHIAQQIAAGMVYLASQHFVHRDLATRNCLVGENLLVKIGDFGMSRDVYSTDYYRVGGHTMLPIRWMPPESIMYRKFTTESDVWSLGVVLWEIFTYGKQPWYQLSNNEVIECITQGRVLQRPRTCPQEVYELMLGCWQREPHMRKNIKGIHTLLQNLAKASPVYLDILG
Dual specificity protein kinase CLK4 (Homo sapiens), sequence (Q9HAZ1 whole entry, looked up): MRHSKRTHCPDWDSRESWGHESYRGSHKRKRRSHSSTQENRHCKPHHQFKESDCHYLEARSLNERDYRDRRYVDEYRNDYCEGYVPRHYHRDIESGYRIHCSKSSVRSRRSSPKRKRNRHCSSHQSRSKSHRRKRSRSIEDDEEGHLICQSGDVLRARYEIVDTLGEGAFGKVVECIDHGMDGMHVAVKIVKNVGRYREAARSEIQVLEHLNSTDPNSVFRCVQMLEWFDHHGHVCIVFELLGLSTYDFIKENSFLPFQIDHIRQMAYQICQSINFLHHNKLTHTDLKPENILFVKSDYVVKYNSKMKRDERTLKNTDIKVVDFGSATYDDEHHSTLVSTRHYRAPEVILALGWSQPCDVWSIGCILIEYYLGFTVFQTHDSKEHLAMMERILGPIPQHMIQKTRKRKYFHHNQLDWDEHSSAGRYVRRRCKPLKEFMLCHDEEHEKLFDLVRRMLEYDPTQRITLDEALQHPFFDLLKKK
High affinity nerve growth factor receptor (Homo sapiens), sequence (P04629 33-796 limits assumed): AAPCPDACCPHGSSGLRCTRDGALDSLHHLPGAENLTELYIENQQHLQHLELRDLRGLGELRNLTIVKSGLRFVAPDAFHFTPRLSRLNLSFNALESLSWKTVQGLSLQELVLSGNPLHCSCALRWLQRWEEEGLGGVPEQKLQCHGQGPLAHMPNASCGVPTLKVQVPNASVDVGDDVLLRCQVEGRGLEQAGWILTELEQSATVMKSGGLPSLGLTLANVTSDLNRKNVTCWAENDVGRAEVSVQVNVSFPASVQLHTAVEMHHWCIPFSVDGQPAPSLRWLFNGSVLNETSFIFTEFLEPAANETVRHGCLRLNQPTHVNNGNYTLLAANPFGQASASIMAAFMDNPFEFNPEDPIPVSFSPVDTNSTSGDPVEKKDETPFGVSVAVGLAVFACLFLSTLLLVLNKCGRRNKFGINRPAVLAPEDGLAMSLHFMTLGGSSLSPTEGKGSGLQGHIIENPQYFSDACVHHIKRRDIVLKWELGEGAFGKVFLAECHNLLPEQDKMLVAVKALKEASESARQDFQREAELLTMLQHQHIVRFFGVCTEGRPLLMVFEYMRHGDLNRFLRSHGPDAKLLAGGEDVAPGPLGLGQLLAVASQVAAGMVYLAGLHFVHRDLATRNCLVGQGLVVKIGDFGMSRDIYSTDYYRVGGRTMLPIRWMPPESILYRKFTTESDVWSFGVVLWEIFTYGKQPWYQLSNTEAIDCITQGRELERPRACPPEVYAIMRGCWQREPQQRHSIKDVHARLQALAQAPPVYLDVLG

| Compound | IC50 [1] [nM] | inhibition [2] | inhibition [3] | inhibition [4] | inhibition [5] | inhibition [6] | inhibition [7] |
| --- | --- | --- | --- | --- | --- | --- | --- |
| OC[C@H]1C[C@@H](Nc2nc(NC3CCOCC3)ncc2-c2nc3ccccc3s2)[C@H](O)[C@@H]1O | 1080 | Active | Active | Active | Active | Active | Active |
| CCCNc1ncc(-c2nc3ccccc3s2)c(N[C@@H]2C[C@H](CO)[C@@H](O)[C@H]2O)n1 | 1190 | Active | Active | Active | Active | Active | Active |
| Nc1ncc(-c2ccccn2)c(N[C@@H]2C[C@H](CO)[C@@H](O)[C@H]2O)n1 | 830 | Active | Active | Active | Active | Active | Active |
| OC[C@H]1C[C@@H](Nc2nc(NC3CCCCC3)ncc2-c2nc3ccccc3s2)[C@H](O)[C@@H]1O | 3010 | Active | Active | Active | Active | Active | Active |

Stronger by IC50 [1], values ahead:

| IC50 [1] [nM] | inhibition [2] | inhibition [3] | inhibition [4] | inhibition [5] | inhibition [6] | inhibition [7] | Compound |
| --- | --- | --- | --- | --- | --- | --- | --- |
| 240 | Active | Active | Active | Active | Active | Active | Nc1ncc(-c2nc3ccccc3s2)c(N[C@@H]2C[C@H](CO)[C@@H](O)[C@H]2O)n1 |
| 240 | Active | Active | Active | Active | Active | Active | CCCNc1nc(C)c(-c2nc3ccccc3s2)c(N[C@@H]2C[C@H](CO)[C@@H](O)[C@H]2O)n1 |
| 228 | Active | Active | Active | Active | Active | Active | COCCCNc1ncc(-c2nc3ccccc3s2)c(N[C@@H]2C[C@H](CO)[C@@H](O)[C@H]2O)n1 |
| 170 | Active | Active | Active | Active | Active | Active | Nc1nc(Cl)c(-c2nc3ccccc3s2)c(N[C@@H]2C[C@H](CO)[C@@H](O)[C@H]2O)n1 |
